Patent US8486959B2, “Dibenzo[f,h]isoquinoline derivatives” (National Health Research Institutes, priority 2010, dated 2013)
Read-outs that look alike come from different tables or passages of the source.

Experiments:
Type in all cases: cell-based
[1] = tested on: NCI H460, MCF7, SF268, HONE-1, NUGC-3, HepG2 and A549 cells; experiment: Inhibition of cancer cell growth (MTS assay); conditions: Homo sapiens, tested cancer cells, 72 h, read-out: CC50 (concentration required to reduce the cancer cell growth by 50%)
Experimental: NCI H460 (human lung cancer cell line), MCF7 (human breast cancer cell line), SF268 (human brain cancer cell line), HONE-1 (human nasopharyngeal epithelial carcinomas cell line), NUGC-3 (human gastric cancer cell line) cells, HepG2 (human hepatocellular carcinoma cell line), and A549 (human lung adenocarcinoma epithelial cell line) were maintained in DMEM medium containing 10% fetal bovine serum, seeded in 96-well plates (2500, 6500, 7500, 4500, 6000, 10000, or 5000 cells/well), and incubated at 37° C. with 5% CO2 supply for 24 h. The cells were then incubated with or without a test compound (at five different concentrations) in a CO2 incubator at 37° C. for 72 h. The number of viable cells in each well was determined by the tetrazolium dye reduction assay (MTS assay) according to the protocol provided by the manufacturer (Promega, Madison, Wis., USA). For each test compound, a dose-response curve was drawn based on the concentrations of the compound versus the numbers of viable cells treated with the compound at those concentrations. The CC50 value of that compound, referring to the concentration of the compound required to reduce the cancer cell growth by 50%, was determined according to the dose-response curve.

[2] = tested on: NO production in RAW 264.7 cells; experiment: Inhibition of nitric oxide production (Nitrate/Nitrite assay, Griess reagent); conditions: Mus musculus, RAW264.7, LPS (10 μg/ml)/IFNγ (20 ng/ml), 18-24 h, read-out: EC50 value for inhibiting nitric oxide production
Experimental: RAW 264.7 cells were seeded (70,000 cells/well) and cultured in a 96-well culture plate using the DMEM medium described above. 24 hours later, the medium was replaced with a fresh DMEM medium supplemented with LPS (10 μg/ml)/IFNγ (20 ng/ml). Test compounds (at different concentrations) were then added. The cells, incubated with or without test compounds, were then cultured for 18-24 h and the nitrate and nitric oxide levels in the culturing medium were measured using a Nitrate/Nitrite assay kit (Cayman Chemical). Nitrate was reduced to nitrite with nitrate reductase and determined spectrophotometrically with Griess reagent at OD540. For each test compound, a dose-response curve was drawn based on the concentrations of the compound versus the corresponding nitrate/nitric oxide levels in the culturing media of the cells treated with the compound. The EC50 value of that compound for inhibiting nitric oxide production was determined according to the dose-response curve.

[3] = tested on: Transmissible Gastroenteritis Virus (TGEV) spike (S) and nucleocapsid (N) proteins; experiment: Inhibition of TGEV protein production (indirect immunofluorescent assay in ST cells)
Experimental: Swine testicular (ST) cells were cultured in a 96-well plate in the presence or absence of a test compound (at 8 different concentrations) for 2 hours and then infected with TGEV at a MOI of 10. Six hours after TGEV infection, the ST cells were fixed with 80% acetone and subjected to an indirect immunofluorescent assay (IFA) to examine the levels of TGEV spike (S) and nucleocapsid (N) proteins. Briefly, the fixed cells were incubated with murine monoclonal antibodies specific to these two viral proteins for a sufficient period to allow binding of the antibodies to the viral proteins. After being washed with phosphate-buffered saline for three times, the cells were incubated with a fluorescein isothiocyanate-conjugated anti-mouse immunoglobulin antibody (ICN Pharmaceuticals, Inc./Cappel) for 60 min at room temperature. The cells were washed again with phosphate-buffered saline for three times, and the fluorescence intensities released from these cells were measured by a Wallac Victor II system (Packard, Inc.) at excitation and emission wavelengths 485 nm and 535 nm, respectively. The 50% effective concentration (EC50) for inhibiting S and N protein expression of the test compound was determined based on the florescence intensity values thus measured. Alternatively, the fluorescence intensities were detected by fluorescence microscopy. More specifically, the fluorescent images produced under 485 nm and 535 nm were captured by a charge-coupled device linked to a Leica IM50 Image Manager.

[4] = Alphacoronavirus 1, read-out: EC50 for inhibiting S and N protein expression
[5] = Alphacoronavirus 1, ST cells, compound 2 hours before TGEV infection at MOI of 10, read six hours after infection, read-out: EC50 for inhibiting S and N protein expression

Compound | CC50 [1] | EC50 [2] | EC50 [3, 4] | EC50 [3, 5]
COc1cc2c3c(c4cc(OC)c(OC)cc4c2cc1OC)CN(CCN)CC3 [Compound 36] | < 50 µM |  |  | 
COc1cc2c3c(c4cc(OC)c(OC)cc4c2cc1OC)CN(CC(C)C)CC3 [Compound 21] | < 50 µM |  |  | 
CCCCN1CCc2c(c3cc(OC)c(OC)cc3c3cc(OC)c(OC)cc23)C1 [Compound 20] | < 50 µM |  |  | 
COc1cc2c3c(c4cc(OC)c(OC)cc4c2cc1OC)CN(CCNC(=O)OC(C)(C)C)CC3 [Compound 35] | < 50 µM |  |  | 
CCCN1CCc2c(c3cc(OC)ccc3c3cc(OC)c(OC)cc23)C1 [Compound 31] | < 50 µM |  |  | 
CCCCN1CCc2c(c3cc(OC)c(OC)cc3c3cc(OC)ccc23)C1 [Compound 7] | < 50 µM |  |  | 
CCN1CCc2c(c3cc(OC)c(OC)cc3c3c(OC)c(OC)c(OC)cc23)C1 [Compound 1] | < 50 µM | < 1 µM | < 1 µM | 
COc1cc2c3c(c4cc(OC)c(OC)cc4c2cc1OC)CN(CCC1OCCO1)CC3 [Compound 24] | < 50 µM |  |  | 
CCN1CCc2c(c3cc(OC)c(OC)cc3c3cc(OC)c(OC)cc23)C1 [Compound 18] | < 50 µM |  |  | 
CCN1CCc2c(c3cc(OC)ccc3c3cc(OC)c(OC)cc23)C1 [Compound 30] | < 50 µM |  |  | 
CCCN1Cc2c(c3cc(OC)c(OC)c(OC)c3c3cc(OC)c(OC)cc23)C(O)C1 (centres unmarked) [Compound 8] | < 50 µM |  |  | < 1 µM
CCCN1CCc2c(c3ccc(OC)cc3c3cc(OC)c(OC)cc23)C1 [Compound 29] | < 50 µM |  |  | 
CCCCN1CCc2c(c3cc(OC)c(OC)cc3c3c(OC)c(OC)c(OC)cc23)C1 [Compound 3] | < 50 µM |  |  | 
CCCN1CCc2c(c3cc(OC)c(OC)cc3c3cc(OC)c(OC)cc23)C1 [Compound 19] | < 50 µM |  | < 1 µM | 
CCN1Cc2c(c3cc(OC)c(OC)cc3c3cc(OC)c(OC)cc23)C(O)C1 (centres unmarked) [Compound 9] | < 50 µM | < 1 µM |  | < 1 µM
COc1cc2c3c(c4cc(OC)c(OC)cc4c2cc1OC)C(O)CN(C(C)C)C3 (centres unmarked) [Compound 14] | < 50 µM | < 1 µM |  | 
CCN1Cc2c(c3ccc(OC)cc3c3cc(OC)c(OC)cc23)C(O)C1 (centres unmarked) [Compound 33] | < 50 µM | < 1 µM |  | 
COc1cc2c3c(c4cc(OC)c(OC)cc4c2cc1OC)CN(C(C)C)CC3 [Compound 25] | < 50 µM | < 1 µM | < 1 µM | 
CCCN1CCc2c(c3cc(OC)c(OC)cc3c3c(OC)c(OC)c(OC)cc23)C1 [Compound 2] | < 50 µM |  | < 1 µM | 
COc1cc2c3c(c4cc(OC)c(OC)cc4c2cc1OC)CN(CC1OCCO1)CC3 [Compound 23] | < 50 µM |  |  | 
CCCN1CCc2c(c3cc(OC)c(OC)cc3c3cc(OC)ccc23)C1 [Compound 6] | < 50 µM |  |  | < 1 µM
CCN1CCc2c(c3cc(OC)c(OC)cc3c3cc(OC)ccc23)C1 [Compound 5] | < 50 µM |  |  | < 1 µM
COc1cc2c3c(c4cc(OC)c(OC)c(OC)c4c2cc1OC)CCN(C(C)C)C3 [Compound 4] | < 50 µM |  |  | < 1 µM
CCCN1Cc2c(c3cc(OC)c(OC)cc3c3cc(OC)c(OC)cc23)C(O)C1 (centres unmarked) [Compound 10] | < 50 µM | < 1 µM |  | < 1 µM
CCCN1CCc2c(c3cc(OC)ccc3c3c(OC)c(OC)ccc23)C1 [Compound 32] | < 50 µM |  |  | 
CCC(C)N1CCc2c(c3cc(OC)c(OC)cc3c3cc(OC)c(OC)cc23)C1 (centres unmarked) [Compound 26] | < 50 µM |  | < 1 µM | 
COc1cc2c3c(c4cc(OC)c(OC)cc4c2cc1OC)CN(C1C=CCCC1)CC3 (centres unmarked) [Compound 34] | < 50 µM |  |  | 
